Results taken from patent publication US20190119348A1, “PARATHYROID HORMONE RECEPTOR 1 ANTAGONIST AND INVERSE AGONIST POLYPEPTIDES AND METHODS OF THEIR USE” (The General Hospital Corporation, priority 2016, published 2019).
Where two headings read alike, the source gives them in different places. Where a SMILES comes first, the peptide text is derived from it. [ ]: non-standard residue; d: D form.

Key:
PTHR1 [1] = molecular target: T1, PTHR1 (Homo sapiens, UniProt Q03431); assay: Residual agonist activity, cAMP luminescence in GP-2.3 cells; assay type: cell-based; conditions: ligands applied directly to GP-2.3 cells
T1 construct: expressed in transfected cells; host or cells: GP-2.3 (HEK-293 stably transfected with hPTHR1 and GloSensor)
T1 sequence (Q03431 27-593): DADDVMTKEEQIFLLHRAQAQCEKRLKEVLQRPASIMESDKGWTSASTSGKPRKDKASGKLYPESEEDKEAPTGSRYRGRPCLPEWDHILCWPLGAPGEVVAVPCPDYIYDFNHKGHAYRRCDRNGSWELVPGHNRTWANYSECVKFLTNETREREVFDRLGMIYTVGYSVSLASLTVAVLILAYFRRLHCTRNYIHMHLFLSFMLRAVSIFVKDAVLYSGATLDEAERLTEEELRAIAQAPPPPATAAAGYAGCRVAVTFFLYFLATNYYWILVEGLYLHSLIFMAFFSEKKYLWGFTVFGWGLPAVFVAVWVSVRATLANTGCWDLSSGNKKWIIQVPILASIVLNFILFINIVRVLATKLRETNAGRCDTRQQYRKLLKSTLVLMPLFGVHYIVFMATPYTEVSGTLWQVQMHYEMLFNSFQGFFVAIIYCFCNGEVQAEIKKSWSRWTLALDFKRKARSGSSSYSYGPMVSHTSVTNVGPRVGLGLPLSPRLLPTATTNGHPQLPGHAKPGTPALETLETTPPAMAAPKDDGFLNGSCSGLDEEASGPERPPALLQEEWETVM
Description: cAMP signaling was assessed in the HEK293-derived or SaOS2-derived cell lines stably expressing the luciferase-based GloSensor™ cAMP reporter (Hattersley et al., Paper presented at: Novel Signaling Mechanisms and Bone Cell Biology 2014; Binkowski et al., Methods in molecular biology. 756:263-271). HEK-293 cells were further transfected to stably express the hPTHR1, hPTHR1-H223R, or hPTHR1-T410P. The cells were seeded into 96-well white plates and were assayed 24 to 48 hours post-confluency. Assays were performed at room temperature in CO2-independent culture media (Life Technologies, Corp., Carlsbad, Calif.) containing 0.1% BSA (CIDB). The cells were pre-loaded with luciferin (0.5 mM in CIDB) for 15 minutes, then PTH peptides were added at varying concentrations. cAMP-dependent luminescence was measured at two-minute intervals using a PerkinElmer Envision plate reader. The time at which maximum luminescence (cps) observed with agonist alone, typically at 10-20 minutes after agonist addition, was used to obtain data from wells containing antagonist with or without agonist, to thus generate antagonist ligand dose-response curves. The resulting cps values were then plotted against ligand concentration using GraphPad Prism 7.0 software and a four-parameter logistics curve fitting equation, which yielded parameters of inhibitory potency (pIC50).

PTHR1 [2] = molecular target: T2, PTHR1 (Mus musculus, UniProt P41593); assay: Blood Ca2+ in wild-type mice after co-injection with PTH(1-34); assay type: in vivo; design: from tissue; host or cells: whole animal, wild-type mice (C57BL/6J per methods); conditions: intravenous co-injection with PTH(1-34)
T2 sequence (P41593 27-591): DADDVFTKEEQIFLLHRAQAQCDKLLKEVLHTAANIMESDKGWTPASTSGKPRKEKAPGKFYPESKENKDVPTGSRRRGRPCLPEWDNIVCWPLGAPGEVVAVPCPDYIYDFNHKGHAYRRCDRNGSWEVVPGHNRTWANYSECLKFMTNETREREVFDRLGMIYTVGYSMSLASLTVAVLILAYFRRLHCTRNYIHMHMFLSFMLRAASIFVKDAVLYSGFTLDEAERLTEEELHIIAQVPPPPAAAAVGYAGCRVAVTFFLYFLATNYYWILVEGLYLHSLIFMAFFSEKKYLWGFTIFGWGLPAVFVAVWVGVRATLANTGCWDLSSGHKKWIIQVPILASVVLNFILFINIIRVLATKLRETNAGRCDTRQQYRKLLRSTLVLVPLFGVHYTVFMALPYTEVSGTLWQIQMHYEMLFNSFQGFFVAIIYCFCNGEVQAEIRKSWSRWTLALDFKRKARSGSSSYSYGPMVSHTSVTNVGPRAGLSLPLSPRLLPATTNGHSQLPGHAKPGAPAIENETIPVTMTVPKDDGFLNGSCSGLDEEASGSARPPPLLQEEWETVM
Text: Wilde-type, ca. 10-week old male C57BL/6J mice were purchased from the Charles River Laboratories (Wilmington, Mass., USA). The origin and method of breeding of Col1-H223R “Jansen's” transgenic mice is described by Calvi et al. (J. Clin. Invest., 107:277-286, 2001). Mice were maintained in facilities operated by the Center for Comparative Research of the Massachusetts General Hospital, and acclimated in the facilities for seven days prior to being used for study. All experimental procedures were approved by the MGH Institutional Animal Care and Use Committee (IACUC). In each study, animals were assigned randomly to treatment groups. Where possible, power calculations established that the number of animals used per study group was sufficient to detect statistically significant differences in intended primary experimental outcomes (i.e., changes in serum Ca and Pi).
Mice were injected IV via the tail vein or subcutaneously with ligands in vehicle (0.05% Tween80; 10 mM citrate; 150 mM NaCl; pH 5.0) to give the intended final ligand dose (e.g. 50 nmol/kg body weight). At times immediately before (t=0) and after injection, tail vein blood was collected and analyzed for blood ionized calcium (Ca^2+) measured with a RAPIDLAB 348 analyzer (SIEMENS Healthcare Diagnostic, United Kingdom).

PTHR1 (hPTHR1) = molecular target: T3, PTHR1 (hPTHR1) (Homo sapiens, UniProt Q03431); assay: Radioligand competition binding in GP-2.3 cells; conditions: for IC50: means of four experiments
T3 construct: expressed in transfected cells; host or cells: GP-2.3 (HEK-293 stably transfected with hPTHR1 and GloSensor)
T3 sequence (Q03431 27-593): T1 sequence (Q03431 27-593)
Description: Intact cell binding reactions were performed in 96-well plates, and, following incubation, the cells were lysed with 1N NaOH, and the lysate was counted for gamma radiation. For membrane dissociation assays, reactions were assembled in 15 cc tubes, and, at times following membrane addition (t=0), aliquots were withdrawn and filtered through a well of a vacuum filtration 96-well plate, rinsed, and, after washing, the filters were removed and counted for gamma irradiation. […] Curves were fit to the data using a four-parameter sigmoidal dose-response equation.
Pharmacological properties of the ligands were assessed in cells expressing the PTHR1 and the GloSensor™ cAMP reporter. The assays used GP-2.3 cells, derived from HEK293 cells by stable transfection with the hPTHR1 and GloSensor™, as well as SGS-72 cells, which are derived from the human osteosarcoma cell line, Saos-2, in which is endogenously expressed the hPTHR1, by stable transfection with GloSensor™. Binding of representative polypeptides to the PTHR1 was assessed in GP-2.3 cells by radioligand competition methods (FIGS. 1A and 1B, Table 3).
The assays were performed in GP-2.3 cells with the two tracer ^125I-radioligands shown; values are half-maximal inhibitory concentration (pIC50) and corresponding nanomolar value (below) derived from curve fitting ligand dose-response data. Data are means of four experiments.

residual agonist activity compared with dTrp^12-PTH(7-34)-1894 (PTHR1 [1]): less residual agonist activity
apparent PTHR1 affinity compared with dTrp^12-PTH(7-34)-1894 (PTHR1 (hPTHR1); radioligand competition): at least as strong
IC50 (PTHR1 (hPTHR1); tracer ^125I-PTH(1-34), read-out: half-maximal inhibitory concentration, corresponding nanomolar value, tracer ^125I-PTH(1-34)): 22.3 nM
IC50 (PTHR1 (hPTHR1); tracer ^125I-PTHrP(5-36), read-out: half-maximal inhibitory concentration, corresponding nanomolar value, tracer ^125I-PTHrP(5-36)): 17.7 nM
Structure (SMILES): CC[C@H](C)[C@H](N)C(=O)N[C@@H](CCC(N)=O)C(=O)N[C@@H](CC(C)C)C(=O)N[C@@H](CCSC)C(=O)N[C@@H](Cc1c[nH]cn1)C(=O)N[C@@H](CCC(N)=O)C(=O)N[C@@H](CCCNC(=N)N)C(=O)N[C@H](Cc1c[nH]c2ccccc12)C(=O)N[C@@H](CCCCN)C(=O)N[C@@H](Cc1c[nH]c2ccccc12)C(=O)N[C@H](C(=O)N[C@@H](CCC(N)=O)C(=O)N[C@@H](CC(=O)O)C(=O)N[C@@H](C)C(=O)N[C@@H](CCCNC(=N)N)C(=O)N[C@@H](CCCNC(=N)N)C(=O)N[C@@H](CCCNC(=N)N)C(=O)N[C@@H](C)C(=O)N[C@@H](Cc1c[nH]c2ccccc12)C(=O)N[C@@H](CC(C)C)C(=O)N[C@@H](Cc1c[nH]cn1)C(=O)N[C@@H](CCCCN)C(=O)N[C@@H](CC(C)C)C(=O)N[C@H](C(=O)N[C@@H](C)C(=O)N[C@@H](CCC(=O)O)C(=O)N[C@H](C(=O)N[C@@H](Cc1c[nH]cn1)C(=O)N[C@H](C(=O)N[C@@H](C)C(=O)N[C@@H](CCC(=O)O)C(=O)N[C@H](C(N)=O)[C@@H](C)CC)[C@@H](C)O)[C@@H](C)CC)[C@@H](C)CC)[C@@H](C)CC [compound 1949, dW12, W23-LA-PTH(5-36)] (H-IQLMHQR[dW]KWIQDARRRAWLHKLIAEIHTAEI-NH2; N-terminus assumed)
effect on calcemic response to PTH(1-34) (FIG. 11) (PTHR1 [2]): inhibited the capacity of the injected PTH(1-34) agonist to induce a calcemic response
